In the NIST ThermoML archive (doi:10.1021/acs.jced.6b00293):
Numbers after ± are expanded uncertainties.

Key:
[1] = Boiling temperature at pressure P; conditions: Liquid, Ebulliometric method (Recirculating still)
[2] = Liquid, Ebulliometric method (Recirculating still)

Structure (SMILES)	Boiling temperature at pressure P ([1]; 20 kPa)	Boiling temperature at pressure P ([1]; 40 kPa)	Boiling temperature at pressure P ([1]; 60 kPa)	Boiling temperature at pressure P ([1]; 80 kPa)	Boiling temperature at pressure P ([1]; 101.3 kPa)	vapor or sublimation pressure ([2]; 315.14 K)	vapor or sublimation pressure ([2]; 329.42 K)	vapor or sublimation pressure ([2]; 338.61 K)	vapor or sublimation pressure ([2]; 345.53 K)	vapor or sublimation pressure ([2]; 351.62 K)
C1CCCCC1 [cyclohexane]	34.77 ± 0.46 °C	52.32 ± 0.65 °C	63.93 ± 0.68 °C	72.94 ± 0.72 °C	80.96 ± 0.81 °C	–	–	–	–	–
CCO [ethanol]	–	–	–	–	–	20 ± 1 kPa	40 ± 1 kPa	60 ± 1 kPa	80 ± 2 kPa	101.3 ± 1.8 kPa
